Source: patent US10597388B2, “Pyridazinone herbicides” (FMC CORPORATION, priority 2014, dated 2020)
Where two headings read alike, the source gives them in different places.

Key:
Assay type in all cases: in vivo
[1] = system: barnyardgrass (Echinochloa crus-galli); experiment: Test A greenhouse herbicide test, pre- and postemergence; settings: for pest or weed control at 1000 g/ha: Echinochloa crus-galli, 240 h
Summary of the method: (§1)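 Visual injury ratings, 0 (no effect) to 100 (complete control), versus untreated plants after roughly 10 d in a greenhouse. Compounds, formulated in a surfactant-containing non-phytotoxic solvent, were sprayed on loam–sand soil after sowing (pre) or on one- to two-leaf plants 2–10 cm tall (post).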

corn (Zea mays) = experiment: as above
Summary of the method: as §1

[2] = system: crabgrass, large (large crabgrass, Digitaria sanguinalis); experiment: as above; settings: 1000 g ai/ha, 0 to 100 scale
Summary of the method: as §1

[3] = system: foxtail, giant (giant foxtail, Setaria faberii); experiment: as above; settings: for pest or weed control at 1000 g/ha: Setaria faberi, 240 h
Summary of the method: as §1

[4] = system: momingglory (Ipomoea spp.); experiment: as above; settings: 1000 g ai/ha, 0 to 100 scale; for pest or weed control at 1000 g/ha: Ipomoea, 240 h
Summary of the method: as §1

[5] = system: pigweed (Amaranthus retroflexus); experiment: as above
Summary of the method: as §1

[6] = system: velvetleaf (Abutilon theophrasti); experiment: as above; settings: Preemergence, 1000 g ai/ha, 0 to 100 scale, 0 no effect, 100 complete control
Summary of the method: as §1

[7] = system: wheat (Triticum aestivum); experiment: as above; settings: for plant injury at 1000 g/ha: Triticum aestivum, 240 h
Summary of the method: as §1

[8] = system: barnyardgrass (Echinochloa crus-galli); experiment: Test B flooded paddy test; settings: 250 g ai/ha, Flood; visual rating on scale of 0 to 100 where 0 is no effect and 100 is complete control; 13 to 15 d after treatment
Summary of the method: (§2)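 Ratings use a 0-100 visual scale, where 100 is complete control, and compare treated plants with controls after 13 to 15 d of greenhouse growth. Compound went straight into paddy water kept 3 cm over the soil surface, applied to seedlings at the 2-leaf stage.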

[9] = system: ducksalad (Heteranthera limosa); experiment: Test B flooded paddy test; settings: 250 g ai/ha, Flood; visual rating on scale of 0 to 100 where 0 is no effect and 100 is complete control; 13 to 15 d after treatment
Summary of the method: as §2

rice (Oryza sativa) = experiment: Test B flooded paddy test; settings: 250 g ai/ha, Flood; visual rating on scale of 0 to 100 where 0 is no effect and 100 is complete control; 13 to 15 d after treatment
Summary of the method: as §2

[10] = system: sedge, umbrella (small-flower umbrella sedge, Cyperus difformis); experiment: Test B flooded paddy test; settings: 250 g ai/ha, Flood; visual rating on scale of 0 to 100 where 0 is no effect and 100 is complete control; 13 to 15 d after treatment
Summary of the method: as §2

kochia (Kochia scoparia) = experiment: Test A greenhouse herbicide test, pre- and postemergence
Summary of the method: as §1

[11] = system: ragweed (common ragweed, Ambrosia elatior); experiment: as above
Summary of the method: as §1

[12] = system: ryegrass, Italian (Italian ryegrass, Lolium multiflorum); experiment: as above
Summary of the method: as §1

[13] = system: blackgrass (Alopecurus myosuroides); experiment: Test A greenhouse herbicide test, postemergence
Summary of the method: (§3)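 Scores are visual injury ratings from 0 (no effect) to 100 (complete control) versus untreated plants, taken roughly 10 d after treatment in the greenhouse. Treatment was postemergence, on one- to two-leaf plants 2–10 cm high growing in a loam soil/sand mix.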

[14] = system: galium (catchweed bedstraw, Galium aparine); experiment: Test A greenhouse herbicide test, postemergence
Summary of the method: as §3

[15] = Postemergence, 1000 g ai/ha, 0 to 100 scale, 0 is no effect, 100 is complete control
[16] = Preemergence, 1000 g ai/ha, 0 to 100 scale, 0 no effect, 100 complete control
[17] = Postemergence, 0 is no effect, 100 is complete control
[18] = Preemergence, 0 no effect, 100 complete control
[19] = Postemergence, 125 g ai/ha, 0 to 100 scale, 0 no effect, 100 complete control
[20] = Postemergence, 500 g ai/ha, visual rating after approx. 10 d, 0 to 100 scale (0 no effect, 100 complete control)
[21] = Preemergence, 125 g ai/ha, visual injury rating, 0 to 100 scale (0 no effect, 100 complete control), approx. 10 d
[22] = Preemergence, 500 g ai/ha, 0 to 100 scale where 0 is no effect and 100 is complete control
[23] = 125 g ai/ha, 0 to 100 scale, 0 no effect, 100 complete control
[24] = 500 g ai/ha, visual rating after approx. 10 d, 0 to 100 scale (0 no effect, 100 complete control)

Cc1nn(C)c(=O)c(-c2c(C)oc3ccc(Cl)cc23)c1O [Compound 6, 4-(5-chloro-2-methyl-3-benzofuranyl)-5-hydroxy-2,6-dimethyl-3 (2H)-pyridazinone]
pest or weed control at 1000 g/ha ([1]; post-emergence, Postemergence, 1000 g ai/ha, 0 to 100 scale, 0 is no effect, 100 is complete control, read-out: Barnyardgrass plant response rating): 70%
pest or weed control at 1000 g/ha ([1]; pre-emergence, Preemergence, 1000 g ai/ha, 0 to 100 scale, 0 no effect, 100 complete control, read-out: Plant response rating, Barnyardgrass): 100%
plant injury at 1000 g/ha (corn (Zea mays); Zea mays, post-emergence, 240 h, Postemergence, 1000 g ai/ha, 0 to 100 scale, 0 is no effect, 100 is complete control, read-out: Corn plant response rating): 0%
Corn plant response rating (crop injury, 0 = no effect, 100 = complete kill) at 1000 g/ha (corn (Zea mays); Zea mays, pre-emergence, 240 h, Preemergence, 1000 g ai/ha, 0 to 100 scale, 0 no effect, 100 complete control): 30%
pest or weed control at 1000 g/ha ([2]; Digitaria sanguinalis, post-emergence, 240 h, Postemergence, 0 is no effect, 100 is complete control, read-out: Crabgrass, Large plant response rating): 50%
pest or weed control at 1000 g/ha ([3]; post-emergence, Postemergence, 1000 g ai/ha, 0 to 100 scale, 0 is no effect, 100 is complete control, read-out: Foxtail, Giant plant response rating): 70%
pest or weed control at 1000 g/ha ([3]; pre-emergence, Preemergence, 1000 g ai/ha, 0 to 100 scale, 0 no effect, 100 complete control, read-out: Plant response rating, Foxtail, Giant): 50%
pest or weed control at 1000 g/ha ([4]; post-emergence, Postemergence, 0 is no effect, 100 is complete control, read-out: Morningglory plant response rating): 40%
pest or weed control at 1000 g/ha ([4]; pre-emergence, Preemergence, 0 no effect, 100 complete control, read-out: Plant response rating, Morningglory): 10%
pest or weed control at 1000 g/ha ([5]; Amaranthus retroflexus, post-emergence, 240 h, Postemergence, 1000 g ai/ha, 0 to 100 scale, 0 is no effect, 100 is complete control, read-out: Pigweed plant response rating): 50%
pest or weed control at 1000 g/ha ([6]; Abutilon theophrasti, pre-emergence, 240 h, read-out: Plant response rating, Velvetleaf): 20%
plant injury at 1000 g/ha ([7]; post-emergence, Postemergence, 1000 g ai/ha, 0 to 100 scale, 0 is no effect, 100 is complete control, read-out: Wheat plant response rating): 20%
plant injury at 1000 g/ha ([7]; pre-emergence, Preemergence, 1000 g ai/ha, 0 to 100 scale, 0 no effect, 100 complete control, read-out: Plant response rating, Wheat): 0%

5-hydroxy-4-(5-methoxy-3-benzofuranyl)-2,6-dimethyl-3(2H)-pyridazinone [Compound 5]
Barnyardgrass plant response rating [1, 15]: 40
Plant response rating, Barnyardgrass [1, 16]: 90
Corn plant response rating (corn (Zea mays); [15]): 0
Plant response rating, Corn (corn (Zea mays); [16]): 0
Crabgrass, Large plant response rating [2, 17]: 80
Plant response rating, Crabgrass, Large [2, 18]: 90
Foxtail, Giant plant response rating [3, 15]: 80
Plant response rating, Foxtail, Giant [3, 16]: 80
Morningglory plant response rating [4, 17]: 70
Plant response rating, Morningglory [4, 18]: 0
Pigweed plant response rating [5, 15]: 10
Plant response rating, Pigweed [5, 16]: 0
Plant response rating, Velvetleaf [6]: 0
Wheat plant response rating [7, 15]: 0
Plant response rating, Wheat [7, 16]: 0
Plant response rating, Barnyardgrass [8]: 0
Plant response rating, Ducksalad [9]: 45
Plant response rating, Rice (rice (Oryza sativa)): 0
Plant response rating, Sedge, Umbrella [10]: 75

Cc1n[nH]c(=O)c(-c2cccc3ccccc23)c1OCC(F)F [Compound 173]
Plant response rating, Barnyardgrass [1, 19]: 0
Plant response rating, Barnyardgrass [1, 20]: 0
Plant response rating, Barnyardgrass [1, 21]: 0
Plant response rating, Barnyardgrass [1, 22]: 0
Plant response rating, Corn (corn (Zea mays); [19]): 0
Plant response rating, Corn (corn (Zea mays); [20]): 0
Plant response rating, Foxtail, Giant [3, 19]: 0
Plant response rating, Foxtail, Giant [3, 20]: 0
Plant response rating, Foxtail, Giant [3, 21]: 0
Plant response rating, Foxtail, Giant [3, 22]: 0
Plant response rating, Kochia (kochia (Kochia scoparia); [19]): 0
Plant response rating, Kochia (kochia (Kochia scoparia); [20]): 0
Plant response rating, Kochia (kochia (Kochia scoparia); [21]): 0
Plant response rating, Kochia (kochia (Kochia scoparia); [22]): 0
Plant response rating, Pigweed [5, 19]: 0
Plant response rating, Pigweed [5, 20]: 0
Plant response rating, Pigweed [5, 21]: 0
Plant response rating, Pigweed [5, 22]: 0
Plant response rating, Ragweed [11, 19]: 0
Plant response rating, Ragweed [11, 20]: 0
Plant response rating, Ragweed [11, 21]: 0
Plant response rating, Ragweed [11, 22]: 0
Plant response rating, Ryegrass, Italian [12, 19]: 0
Plant response rating, Ryegrass, Italian [12, 20]: 0
Plant response rating, Ryegrass, Italian [12, 21]: 0
Plant response rating, Ryegrass, Italian [12, 22]: 0
Plant response rating, Wheat [7, 19]: 0
Plant response rating, Wheat [7, 20]: 0
Plant response rating, Blackgrass [13, 23]: 0
Plant response rating, Blackgrass [13, 24]: 0
Plant response rating, Galium [14, 23]: 0
Plant response rating, Galium [14, 24]: 0
Plant response rating, Barnyardgrass [8]: 0
Plant response rating, Ducksalad [9]: 0
Plant response rating, Rice (rice (Oryza sativa)): 0
Plant response rating, Sedge, Umbrella [10]: 0

CCOC(=O)Oc1c(C)nn(C)c(=O)c1-c1c([N+](=O)[O-])ccc2ccccc12 [Compound 166]
Plant response rating, Barnyardgrass [1, 19]: 10
Plant response rating, Barnyardgrass [1, 20]: 20
Plant response rating, Barnyardgrass [1, 21]: 10
Plant response rating, Barnyardgrass [1, 22]: 10
Plant response rating, Corn (corn (Zea mays); [19]): 20
Plant response rating, Corn (corn (Zea mays); [20]): 20
Plant response rating, Foxtail, Giant [3, 19]: 10
Plant response rating, Foxtail, Giant [3, 20]: 40
Plant response rating, Foxtail, Giant [3, 21]: 10
Plant response rating, Foxtail, Giant [3, 22]: 30
Plant response rating, Kochia (kochia (Kochia scoparia); [19]): 50
Plant response rating, Kochia (kochia (Kochia scoparia); [20]): 70
Plant response rating, Kochia (kochia (Kochia scoparia); [21]): 30
Plant response rating, Kochia (kochia (Kochia scoparia); [22]): 90
Plant response rating, Pigweed [5, 19]: 40
Plant response rating, Pigweed [5, 20]: 80
Plant response rating, Pigweed [5, 21]: 80
Plant response rating, Pigweed [5, 22]: 90
Plant response rating, Ragweed [11, 19]: 30
Plant response rating, Ragweed [11, 20]: 70
Plant response rating, Ragweed [11, 21]: 70
Plant response rating, Ragweed [11, 22]: 90
Plant response rating, Ryegrass, Italian [12, 19]: 40
Plant response rating, Ryegrass, Italian [12, 20]: 90
Plant response rating, Ryegrass, Italian [12, 21]: 40
Plant response rating, Ryegrass, Italian [12, 22]: 90
Plant response rating, Wheat [7, 19]: 0
Plant response rating, Wheat [7, 20]: 20
Plant response rating, Blackgrass [13, 23]: 10
Plant response rating, Blackgrass [13, 24]: 30
Plant response rating, Galium [14, 23]: 70
Plant response rating, Galium [14, 24]: 90
Plant response rating, Barnyardgrass [8]: 0
Plant response rating, Ducksalad [9]: 0
Plant response rating, Rice (rice (Oryza sativa)): 0
Plant response rating, Sedge, Umbrella [10]: 0
